Source: patent US20250282776A1, “Bicyclic TLR7 Agonists and Uses Thereof” (Bristol-Myers Squibb Company, priority 2024, published 2025)

What was measured:
human TLR7 (hTLR7) = target: T1, human TLR7 (hTLR7) (Homo sapiens, UniProt Q9NYK1); experiment: Human TLR7 agonist activity assay (HEK-Blue TLR7 SEAP reporter); format: cell-based; settings: HEK-Blue TLR7 cells, 18 h incubation, Quanti-Blue, OD 620 nm, some values average of multiple measurements
T1 construct: host or cells: HEK-Blue TLR7 cells (engineered human embryonic kidney cells)
T1 sequence (Q9NYK1 27-1049): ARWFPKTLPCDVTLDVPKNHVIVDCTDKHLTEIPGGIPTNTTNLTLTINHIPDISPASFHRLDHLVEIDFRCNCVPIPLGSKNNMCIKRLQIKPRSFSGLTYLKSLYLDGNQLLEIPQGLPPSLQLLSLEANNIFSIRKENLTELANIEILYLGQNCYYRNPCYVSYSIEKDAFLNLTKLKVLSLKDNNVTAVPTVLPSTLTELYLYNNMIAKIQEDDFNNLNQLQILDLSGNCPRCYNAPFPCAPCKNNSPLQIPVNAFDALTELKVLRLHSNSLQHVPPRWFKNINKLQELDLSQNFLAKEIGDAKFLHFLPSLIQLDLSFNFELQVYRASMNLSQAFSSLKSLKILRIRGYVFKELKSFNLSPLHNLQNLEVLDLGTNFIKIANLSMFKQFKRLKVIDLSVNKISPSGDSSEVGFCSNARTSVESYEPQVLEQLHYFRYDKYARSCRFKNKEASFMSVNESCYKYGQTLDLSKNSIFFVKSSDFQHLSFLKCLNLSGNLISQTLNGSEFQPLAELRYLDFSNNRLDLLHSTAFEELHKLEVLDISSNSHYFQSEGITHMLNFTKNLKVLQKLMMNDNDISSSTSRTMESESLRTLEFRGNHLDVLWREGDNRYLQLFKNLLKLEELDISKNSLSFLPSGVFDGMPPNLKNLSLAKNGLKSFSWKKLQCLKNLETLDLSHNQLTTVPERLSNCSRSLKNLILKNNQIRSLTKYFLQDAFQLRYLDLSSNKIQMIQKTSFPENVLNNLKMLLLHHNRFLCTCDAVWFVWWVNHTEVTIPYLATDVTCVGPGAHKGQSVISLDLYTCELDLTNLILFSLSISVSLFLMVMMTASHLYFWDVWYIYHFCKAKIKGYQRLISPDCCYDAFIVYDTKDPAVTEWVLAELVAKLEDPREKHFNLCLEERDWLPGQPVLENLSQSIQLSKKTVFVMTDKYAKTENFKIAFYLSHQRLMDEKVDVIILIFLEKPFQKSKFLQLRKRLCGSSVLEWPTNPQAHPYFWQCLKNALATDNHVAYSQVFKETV
Outline: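 HEK-Blue TLR7 cells seeded 16-18 h, then exposed to compound for 18 h at 37 °C, 5% CO2. Secreted SEAP read with Quanti-Blue at OD 620 nm after 30 min. EC50 taken as concentration giving half-maximal response between baseline and maximum; some values averaged over repeats.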

human TLR8 (hTLR8) = target: T2, human TLR8 (hTLR8) (Homo sapiens, UniProt Q9NR97); experiment: Human TLR8 agonist activity assay (measured in a similar manner); format: cell-based; settings: HEK-Blue TLR cells, SEAP reporter, measured in a similar manner to TLR7; some values average of multiple measurements
T2 construct: expressed in transfected cells
T2 sequence (Q9NR97 27-1041): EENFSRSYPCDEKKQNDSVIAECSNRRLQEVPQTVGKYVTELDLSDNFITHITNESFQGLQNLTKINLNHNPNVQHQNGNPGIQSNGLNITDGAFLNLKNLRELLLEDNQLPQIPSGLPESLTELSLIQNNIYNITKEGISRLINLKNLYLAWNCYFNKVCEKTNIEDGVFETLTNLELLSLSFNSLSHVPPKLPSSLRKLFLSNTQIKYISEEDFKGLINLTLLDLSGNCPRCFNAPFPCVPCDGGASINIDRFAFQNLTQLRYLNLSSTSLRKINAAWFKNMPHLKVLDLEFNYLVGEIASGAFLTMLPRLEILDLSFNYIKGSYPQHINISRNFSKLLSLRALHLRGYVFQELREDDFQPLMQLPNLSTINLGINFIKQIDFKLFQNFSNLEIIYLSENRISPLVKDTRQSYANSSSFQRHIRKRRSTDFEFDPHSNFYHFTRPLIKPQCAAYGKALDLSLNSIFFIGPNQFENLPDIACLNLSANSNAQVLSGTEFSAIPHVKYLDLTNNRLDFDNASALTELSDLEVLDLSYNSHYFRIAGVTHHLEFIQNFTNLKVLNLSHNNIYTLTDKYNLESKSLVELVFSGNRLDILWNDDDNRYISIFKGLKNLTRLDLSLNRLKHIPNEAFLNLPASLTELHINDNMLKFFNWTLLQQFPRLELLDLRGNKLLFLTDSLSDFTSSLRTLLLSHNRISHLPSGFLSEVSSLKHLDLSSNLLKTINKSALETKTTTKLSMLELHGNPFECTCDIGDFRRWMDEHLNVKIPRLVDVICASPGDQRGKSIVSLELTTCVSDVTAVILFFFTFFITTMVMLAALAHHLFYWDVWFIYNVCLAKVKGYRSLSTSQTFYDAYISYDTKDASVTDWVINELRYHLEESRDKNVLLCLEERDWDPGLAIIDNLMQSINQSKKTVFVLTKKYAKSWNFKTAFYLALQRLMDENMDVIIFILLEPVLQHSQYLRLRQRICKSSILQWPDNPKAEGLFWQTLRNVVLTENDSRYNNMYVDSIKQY
Outline: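 Compounds were added to HEK-Blue TLR8 reporter cells, pre-incubated 16-18 h, then treated 18 h at 37° C, 5% CO2. SEAP output was measured with Quanti-Blue (30 min) at OD 620 nm. Some values are averages of multiple measurements.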

EC50 (human TLR7 (hTLR7)) [nM]	EC50 (human TLR8 (hTLR8)) [nM]	Compound
563	1680	CCCCN(CCO)c1nc(N)nc2cn(Cc3c(F)cc(C4=CCC(NC5CCOCC5)CC4)cc3OC)nc12 (centres unmarked) [Compound 190]
550	1600	CCCCN(CCO)c1nc(N)nc2cn(Cc3c(F)cc(C4=CCC(NC5CC6(COC6)C5)CC4)cc3OC)nc12 (centres unmarked) [Compound 192]
333	1080	CCCCN(CCO)c1nc(N)nc2cn(Cc3c(F)cc(C4=CCC(NCCOC)CC4)cc3OC)nc12 (centres unmarked) [Compound 193]
422	1130	CCCCN(CCO)c1nc(N)nc2cn(Cc3c(F)cc(C4=CC[C@@H](NC5CC6(COC6)C5)CC4)cc3OC)nc12 [Compound 194]
541	1750	CCCCN(CCO)c1nc(N)nc2cn(Cc3c(F)cc(C4CCC(N(C)C5CC6(COC6)C5)CC4)cc3OC)nc12 (centres unmarked) [Compound 195]
570	2740	CCCCN(CCO)c1nc(N)nc2cn(Cc3c(F)cc(C4=CCC(N(CCO)CCO)CC4)cc3OC)nc12 (centres unmarked) [Compound 197]
1310	2270	CCCCN(CCO)c1nc(N)nc2cn(Cc3ccc(CN[C@@H]4CCCN(C(=O)CN)C4)c4cccnc34)nc12 [Compound 198]
274	1620	CCCCN(CCO)c1nc(N)nc2cn(Cc3c(F)cc(C4CCC(N(C)CCOC)CC4)cc3OC)nc12 (centres unmarked) [Compound 199]
301	879	CCCCN(CCO)c1nc(N)nc2cn(Cc3ccc(CN[C@@H]4CCCN(S(C)(=O)=O)C4)c4cccnc34)nc12 [Compound 200, (R)-2-((5-Amino-2-((5-(((1-(methylsulfonyl)piperidin-3-yl)amino)methyl)quinolin-8-yl)methyl)-2H-pyrazolo[4,3-d]pyrimidin-7-yl)(butyl)amino) ethan-1-ol]
1350	3140	CCCCN(CCO)c1nc(N)nc2cn(Cc3ncc(CNC(C)(C)C)cc3OC)nc12 [Compound 201]
614	725	CCCCN(CCO)c1nc(N)nc2cn(Cc3ccc(CNC4CCCOC4)c4scnc34)nc12 (centres unmarked) [Compound 202]
1900	1190	CCCCN(CCO)c1nc(N)nc2cn(Cc3ccc(CNC4CCOCC4)c4nccnc34)nc12 [Compound 206]
2380	1180	CCCCN(CCO)c1nc(N)nc2cn(Cc3ccc(CNC4CCC4)c4cn[nH]c34)nc12 [Compound 207]
1890	1270	CCCCN(CCO)c1nc(N)nc2cn(Cc3ccc(CNCCOC)c4nccnc34)nc12 [Compound 208]
148	112	CCCCN(CCO)c1nc(N)nc2c(C)n(Cc3ccc(CNC4CCOCC4)cc3OC)nc12 [Compound 212, 2-((5-Amino-2-(2-methoxy-4-(((tetrahydro-2H-pyran-4-yl)amino)methyl)benzyl)-3-methyl-2H-pyrazolo[4,3-d]pyrimidin-7-yl) (butyl)amino) ethan-1-ol]
396	677	CCCCN(CCO)c1nc(N)nc2cn(Cc3ccc(CNC4CCS(=O)(=O)CC4)c4scnc34)nc12 [Compound 213]

Further lines, the molecule ahead of its results:

Compound	EC50 (human TLR7 (hTLR7)) [nM]	EC50 (human TLR8 (hTLR8)) [nM]
CCCCN(CCO)c1nc(N)nc2cn(Cc3ccc(CNC4CCC4)n4ncnc34)nc12 [Compound 175, 2-((5-Amino-2-((5-((cyclobutylamino)methyl)-[1,2,4]triazolo[1,5-a]pyridin-8-yl)methyl)-2H-pyrazolo[4,3-d]pyrimidin-7-yl)(butyl)amino)ethan-1-ol]	307	328
COc1cc(CNC2CCC2)ccc1Cn1cc2nc(N)nc(N(CCO)CCCCF)c2n1 [Compound 176]	1640	1950
CCCCN(CCO)c1nc(N)nc2cn(Cc3ccc(CO)n4ncnc34)nc12 [Compound 177]	949	1460
CCCCN(c1nc(N)nc2cn(Cc3c(F)cc(C4CCN(C5CC6(COC6)C5)CC4)cc3OC)nc12)C(C)CO (centres unmarked) [Compound 179]	121	213
CCCCN(CCO)c1nc(N)nc2cn(Cc3ccc(CNC4CCOCC4)c4scnc34)nc12 [Compound 180, 2-((5-Amino-2-((7-(((tetrahydro-2H-pyran-4-yl)amino)methyl)benzo[d]thiazol-4-yl)methyl)-2H-pyrazolo[4,3-d]pyrimidin-7-yl)(butyl)amino)ethan-1-ol]	294	230
CCCCN(CCO)c1nc(N)nc2cn(Cc3ncc(CNC4CCC4)cc3OC)nc12 [Compound 182]	865	1770
CCCCN(CCO)c1nc(N)nc2cn(Cc3ccc(CNC4CCC4)c4scnc34)nc12 [Compound 184]	401	310
CCCCN(CCO)c1nc(N)nc2cn(Cc3ccc(CN[C@@H]4CCCN(C(=O)OC)C4)c4cccnc34)nc12 [Compound 185, Methyl (R)-3-(((8-((5-amino-7-(butyl(2-hydroxyethyl)amino)-2H-pyrazolo[4,3-d]pyrimidin-2-yl)methyl)quinolin-5-yl)methyl)amino) piperidine-1-carboxylate]	499	508
CCCCN(CCO)c1nc(N)nc2cn(Cc3ccc(CN[C@@H]4CCCN(C(C)=O)C4)c4cccnc34)nc12 [Compound 186]	1690	3490
CCCCN(CCO)c1nc(N)nc2cn(Cc3ccc(CN[C@@H]4CCOC4)n4ccnc34)nc12 [Compound 187, (R)-2-((5-Amino-2-((5-(((tetrahydrofuran-3-yl)amino)methyl)imidazo[1,2-a]pyridin-8-yl)methyl)-2H-pyrazolo[4,3-d]pyrimidin-7-yl)(butyl)amino) ethan-1-ol]	674	860
CCCCN(CCO)c1nc(N)nc2cn(Cc3ccc(CN[C@H]4C[C@H](OC)C4)n4ccnc34)nc12 [Compound 188]	781	1400
CCCCN(CCO)c1nc(N)nc2cn(Cc3ccc(CNC(C)(C)C)n4ncnc34)nc12 [Compound 189, 2-((5-Amino-2-((5-((tert-butylamino)methyl)-[1,2,4]triazolo[1,5-a]pyridin-8-yl)methyl)-2H-pyrazolo[4,3-d]pyrimidin-7-yl)(butyl)amino)ethan-1-ol]	793	570
